Results on ten compounds are retold here after ChEMBL document CHEMBL1201862, “PubChem BioAssay data set” (2004).

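Exposure lasted 48 hours, with cells grown in 96-well plates and compounds tested at five concentrations. Here, GI50 denotes the concentration required for 50% inhibition of growth.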 The source made the active and inactive calls. Rule as the data show it: active = GI50 up to about 1.1 µM and inactive = higher. Bounds are passed on as bounds.

Holding throughout (test): growth of human tumour cells (NCI), 48 h
Assay [1] deals with KM12.
The test system of assay [2] is UACC-257.
The subject of assay [3] is SF-295.
Assay [4] deals with OVCAR-8.
Assay [5] deals with MOLT-4.
Assay [6] has as its system RXF 393.
The subject of assay [7] is BT-549.
The subject of assay [8] is UO-31.
Assay [9] deals with PC-3.
Assay [10] has as its system CAKI-1.
Assay [11] relates to ACHN.
Assay [12] concerns HL-60.
Assay [13] deals with RPMI-8226.
Assay [14] concerns M14.
In assay [15] the test system is T47D.
Assay [16] has as its system NCI-H522.
Assay [17] relates to 786-0.
The subject of assay [18] is HCT-15.
In assay [19] the test system is NCI-H226.
The test system of assay [20] is LOX IMVI.

`CC/C(Cl)=N\OC(=O)Nc1ccc(F)cc1F`: the GI50 in assay [1] is 19.9 µM (inactive); in assay [2], 17.3 µM (inactive); in assay [3], 26.4 µM (inactive); in assay [4] it was 19.8 µM (inactive); in [5], 1.55 µM (inactive); in assay [6] it was 12.8 µM (inactive). Moreover, the GI50 was 2.38 µM (inactive) in assay [7]; 14.9 µM (inactive) in assay [8]; 17.7 µM (inactive) in [9]; 1.71 µM (inactive) in assay [10]; 1.89 µM (inactive) in [11]; 1.91 µM (inactive) in assay [12]. Besides, the GI50 in assay [13] was 1.49 µM (inactive); in assay [14] it was 7.6 µM (inactive); in [15], 6.28 µM (inactive); in assay [16], 1.54 µM (inactive); in assay [17], 4.38 µM (inactive); in assay [18] it was 2.34 µM. The GI50 in assay [19] is 17.9 µM (inactive); in assay [20] it was 2.5 µM (inactive).
`COc1cc2c(cc1OC)-c1cc3cc(OC)c(OC)cc3c(=O)n1CC2`: the GI50 in assay [1] is > 50.5 µM (inactive); in assay [2] it was 26.1 µM (inactive); in [3] it was 11.5 µM (inactive); in [4] it was 41.9 µM (inactive); in [5], 3.51 µM (inactive); in assay [6] it was 17.3 µM (inactive). Also, the GI50 in [7] is 37.3 µM (inactive); in assay [8] it was 2.43 µM (inactive); in [9], 21.2 µM (inactive); in [10], 4.93 µM (inactive); in assay [11], 14.4 µM (inactive); in assay [12] it was 17.7 µM (inactive). The GI50 was 3.16 µM (inactive) in assay [13]; 27 µM (inactive) in assay [14]; 2.58 µM (inactive) in assay [15]; 2.76 µM (inactive) in [16]; 23.3 µM (inactive) in assay [17]; 38.5 µM in assay [18]. In addition, the GI50 in assay [19] is 8.75 µM (inactive); in assay [20], 13.2 µM (inactive).
Turning to `NS(=O)(=O)c1ccc(-c2ccc([As](=O)(O)O)cc2)cc1`, the GI50 in assay [1] was > 100 µM (inactive); in assay [2] it was 32.6 µM (inactive); in [3], > 100 µM (inactive); in [4], > 100 µM (inactive); in assay [5] it was > 100 µM (inactive); in assay [6], > 100 µM (inactive). Further, the GI50 in assay [7], in assay [8], in [9], in [10], in assay [11] and in assay [12] was > 100 µM (inactive) throughout. Besides, the GI50 in assay [13] is > 100 µM (inactive); in assay [14] it was > 100 µM (inactive); in assay [15] it was > 100 µM (inactive); in assay [16], > 100 µM (inactive); in [17], > 100 µM (inactive); in assay [18], more than 100 µM. For the same compound, the GI50 in assay [19] and in assay [20] was > 100 µM (inactive) throughout.
As for `O=C(c1ccc(Br)cc1)n1c2ccc(Br)cc2c2nc3ccccc3nc21`, the GI50 in [1] was > 100 µM (inactive); in assay [2], > 100 µM (inactive); in assay [3], > 100 µM (inactive); in [4], > 100 µM (inactive); in assay [5] it was 43.9 µM (inactive); in assay [6], > 100 µM (inactive). Besides, the GI50 in assay [7] was > 100 µM (inactive); in assay [8], > 100 µM (inactive); in [9], > 100 µM (inactive); in [10] it was > 100 µM (inactive); in assay [11], > 100 µM (inactive); in [12], 83.6 µM (inactive). Also, the GI50 in [13] was > 100 µM (inactive); in [14] it was > 100 µM (inactive); in [15] it was > 100 µM (inactive); in assay [16] it was > 100 µM (inactive); in assay [17], > 100 µM (inactive); in [18], more than 100 µM. In addition, the GI50 in assay [19] and in assay [20] was > 100 µM (inactive) each time.
On to `Cc1ccc(C(=O)/C=C2\Nc3ccccc3NC2=O)cc1`, for which the GI50 in assay [1] was 17.1 µM (inactive); in assay [2], 12.4 µM (inactive); in [3], 4.17 µM (inactive); in [4], 3.08 µM (inactive); in assay [5], > 100 µM (inactive); in assay [6] it was 2.42 µM (inactive). The GI50 was 22.2 µM (inactive) in [7]; 4.38 µM (inactive) in [8]; 4.84 µM (inactive) in [9]; 2.44 µM (inactive) in assay [10]; 3.4 µM (inactive) in assay [11]; > 100 µM (inactive) in [12]. Also, the GI50 in assay [13] was 11.1 µM (inactive); in [14] it was 9.27 µM (inactive); in [15], 2.65 µM (inactive); in assay [16] it was 2.49 µM (inactive); in assay [17], 2.49 µM (inactive); in [18], 56.6 µM. The GI50 in [19] was 1.65 µM (inactive); in assay [20], 7.94 µM (inactive).
Consider `O=C1C(Cl)C(c2cc3cc(Br)ccc3nc2Cl)N1c1ccc(F)c(Cl)c1` (stereo not given), for which the GI50 in assay [1] was 3.21 µM (inactive); in assay [2], 11.4 µM (inactive); in assay [3] it was 7.14 µM (inactive); in assay [4] it was 6.14 µM (inactive); in assay [5], 0.594 µM (active); in assay [6] it was 5.4 µM (inactive). In addition, the GI50 was 7.52 µM (inactive) in [7]; 0.118 µM (active) in assay [8]; 3.59 µM (inactive) in assay [9]; 0.857 µM (active) in [10]; 8.53 µM (inactive) in assay [11]; 2.47 µM (inactive) in assay [12]. For the same compound, the GI50 in assay [13] is 1.36 µM (inactive); in assay [14] it was 9.42 µM (inactive); in [15], 8.09 µM (inactive); in [16], 0.275 µM (active); in assay [17], 1.09 µM (active); in [18], 6.44 µM. Further, the GI50 in assay [19] was 6.7 µM (inactive); in assay [20], 0.055 µM (active).
Consider `Cn1c(=O)n2n(c1=O)C1C(=CC2)C2C=CC1n1c(=O)n(C)c(=O)n12` (stereo not given), for which the GI50 in assay [1], in assay [2], in [3], in assay [4], in [5] and in assay [6] was > 100 µM (inactive) in each case. The GI50 in assay [7], in [8], in [9], in [10], in assay [11] and in assay [12] was > 100 µM (inactive) throughout. The GI50 in assay [13] is > 100 µM (inactive); in assay [14], > 100 µM (inactive); in assay [15], > 100 µM (inactive); in assay [16], > 100 µM (inactive); in [17], > 100 µM (inactive); in [18] it was more than 100 µM. The GI50 in assay [19] and in [20] was > 100 µM (inactive) in each case.
Consider `N=C(N)NS(=O)(=O)c1ccc(Nc2c3ccccc3nc3ccc(C(=O)Nc4ccc(S(N)(=O)=O)cc4)cc23)cc1`, for which the GI50 in assay [1], in assay [2], in [3], in assay [4], in assay [5] and in [6] was > 100 µM (inactive) in each case. The GI50 in assay [7], in [8], in [9], in assay [10], in assay [11] and in assay [12] was > 100 µM (inactive) in each case. The GI50 in [13] was > 100 µM (inactive); in assay [14], > 100 µM (inactive); in assay [15], > 100 µM (inactive); in assay [16] it was > 100 µM (inactive); in assay [17], > 100 µM (inactive); in assay [18], more than 100 µM. The GI50 in [19] and in assay [20] was > 100 µM (inactive) each time.
With `CCc1n[nH]c(=O)n1-c1ccncc1`, the GI50 in [1], in assay [2], in [3], in assay [4], in assay [5] and in [6] was > 100 µM (inactive) in each case. Besides, the GI50 in [7], in [8], in assay [9], in assay [10], in assay [11] and in assay [12] was > 100 µM (inactive) in each case. The GI50 in [13] is > 100 µM (inactive); in assay [14], > 100 µM (inactive); in [15] it was > 100 µM (inactive); in assay [16] it was > 100 µM (inactive); in [17], > 100 µM (inactive); in assay [18], more than 100 µM. Also, the GI50 in assay [19] and in assay [20] was > 100 µM (inactive) throughout.
On to `Cc1ccc(O)c(C2=NNC(c3cccc(Br)c3)C2)c1` (stereo not given), for which the GI50 in assay [1] was 63.4 µM (inactive); in assay [2] it was 48.9 µM (inactive); in assay [3] it was 61 µM (inactive); in assay [4], 98.9 µM (inactive); in assay [5], 32.8 µM (inactive); in [6] it was 56.4 µM (inactive). The GI50 in [7] was > 100 µM (inactive); in [8] it was 51.5 µM (inactive); in assay [9], 45.8 µM (inactive); in assay [10], 27.9 µM (inactive); in assay [11], 34.3 µM (inactive); in [12], 53.3 µM (inactive). Besides, the GI50 was 21.9 µM (inactive) in assay [13]; > 100 µM (inactive) in [14]; 35.6 µM (inactive) in assay [15]; 28.5 µM (inactive) in assay [16]; > 100 µM (inactive) in assay [17]; 11.5 µM in assay [18]. Further, the GI50 in assay [19] is 71.6 µM (inactive); in [20] it was 38.3 µM (inactive).
